Test results published in patent publication US8481028B2, “Compositions for preparing a coffee beverage comprising hydrolysed chlorogenic acid” (Nestec S.A., priority 2008, dated 2013).

Legend:
[1] = test system: Lactobacillus johnsonii (CNCM I-1225); experiment: Gastric small-intestinal model (TIM), hydrolysis of 5-CQA during simulated digestion; settings: 6 h digestion, with addition of L. johnsonii
Method: The gastric small-intestinal model, TIM-1, comprises four connected compartments that represent the stomach, duodenum, jejunum and ileum, respectively. Each compartment consists of a glass outer wall with a flexible inner wall. The flexible wall is surrounded by water at 37° C. to squeeze the walls, which ensures mixing of the food with the secreted enzymes by peristaltic movements in the gastro-intestinal tract.
The experiments in the model were performed under average physiological conditions of the gastro-intestinal tract. During the experiments, the temperature was kept at 37° C. and salivary, gastric, biliary, and pancreatic secretions were simulated. The digestion process in the model was monitored for 6 h. During the first 3.5 h, the gastric content was gradually delivered into the small intestine “pyloric valve”. […]
4.5 g of NESCAFE PROTECT® (a co-extract of green and roasted coffee beans) were dissolved in 310 ml acetate buffer (20 mM, pH 6.5). […] After 6 h experiment, the residues from the compartments of the stomach, duodenum, jejunum and ileum were analysed to calculate the mass balance of chlorogenic acids. […] After 6 h, the residues from the compartments of the stomach, duodenum, jejunum and ileum were analysed by HPLC to calculate the mass balance of 5-caffeoyl quinic acid.

[2] = test system: Lactobacillus johnsonii (CNCM I-1225) fresh cells; experiment: Treatment of NESCAFE PROTECT with L. johnsonii fresh cells, HPLC of chlorogenic and phenolic acids
Method: (§1) Cells of L. johnsonii (CNCM I-1225) were grown (7.0 E08 cfu/ml) and centrifuged (5000 g, 10 min), the pellets were resuspended in phosphate buffer (50 mM, pH 7.0) at a concentration of 0.61 g/ml. […] Samples were withdrawn at different reaction times, centrifuged (3000 g, 5 min) and filtered through 0.45 μm pore size syringe filters (Millipore SLHA 025 BS) and analysed by HPLC.
A reaction control was run in parallel under the same reaction conditions but without bacteria.
(§2) Coffee samples were diluted to 1% w/w and analyzed by RP-HPLC on a CC 250/4 Nucleosil 100-5-C18 column (Macherey-Nagel). The eluent system was Millipore water, 0.1% TFA and CH3CN at a flow rate of 1 mL/min. The method allowed the simultaneous determination of caffeoyl quinic acids (CQA), feruloyl quinic acids (FQA), di-caffeoyl quinic acids (diCQA), feruloyl quinic acid-lactones, caffeic acid (CA) and ferulic acid (FA) (absorbance at 325 nm) using external standard calibration curves. Results were expressed relative to the reference at time 0 (t0) or to the reference at the same time without bacteria.

[3] = test system: Lactobacillus johnsonii (CNCM I-1225) extract (lysed cells); experiment: Treatment of NESCAFE PROTECT with L. johnsonii extract (lysed cells), HPLC; assay type: biochemical
Method: as §1, with “g/ml. The cells were then lysed using the glass-beads method. 600 μl of cells preparation were put in screw-cap tubes and 600 μl of glass-beads were added at 0° C. The tubes were then put into a Mini-Beadbeater for 1 min of intense shaking, cooled in ice, and put another 1 min in the Mini-Beadbeater.” for “g/ml.”, “min),” for “min) and”
as §2

[4] = test system: spray-dried preparation of Lactobacillus johnsonii (CNCM I-1225); experiment: Treatment of NESCAFE PROTECT with spray-dried preparation of L. johnsonii, HPLC
Method: (§3) To this solution, 10 mg of a spray-dried preparation of Lactobacillus johnsonii (CNCM I-1225) (3.3 E9 cfu/g) were added. The mixture was then incubated at 37° C. and samples were withdrawn at different reaction times. After centrifugation (3000 g, 5 min) and filtration (0.45 μm pore size syringe filters, Millipore SLHA 025 BS) the samples were analysed by HPLC.
as §2

[5] = test system: spray-dried preparation of Lactobacillus johnsonii (CNCM I-1225); experiment: Treatment of green coffee extract with spray-dried preparation of L. johnsonii, HPLC
Method: as §3, with “30 mg of a dried green coffee extract was dissolved in 1 ml phosphate buffer (50 mM, pH 7.0) or in 1 ml water. To” for “To”, “johnsonii” for “johnsonii (CNCM I-1225)”, “cfu/g) was” for “cfu/g) were”
as §2

[6] = test system: concentrated preparation of Lactobacillus johnsonii (CNCM I-1225); experiment: Treatment of NESCAFE with concentrated preparation of L. johnsonii, HPLC
Method: 400 mg of NESCAFE SPECIAL FILTRE® (a dried extract of roasted coffee beans) were dissolved in 1 ml of boiling water and the solution was cooled to 37° C. at room temperature. To 250 μl of this coffee solution, different amounts of concentrated preparation of Lactobacillus johnsonii (50 μl, 100 μl, 350 μl, 750 μl) were added and the volume was adjusted to 1 ml with water. The mixtures were than incubated at 37° C. for 2 h and 4 h. After centrifugation (3000 g, 5 min) and filtration the samples were analysed by HPLC.
as §2

[7] = test system: Lactobacillus johnsonii (CNCM I-1225); experiment: Treatment of coffee extracts with bacteria cells (L. johnsonii), HPLC
Method: as §2
(§4) Tested strains were harvested (centrifugation at 5000 g for 10 min) after having well reached stationary phase, corresponding to 16 hours of incubation in culture medium at 37° C. in anaerobic atmosphere without agitation. For a first activation of the strains, frozen stock cultures were inoculated in fresh media and grown overnight. This pre-culture was used to inoculate the culture.
(§5) After culture of bacteria and centrifugation, the pellets were resuspended in phosphate buffer (pH 7.0) at a concentration of 0.61 g/ml. To 200 μl of this cells preparation, 800 μl of a coffee solution (3%) was added and the mixture was incubated at 37° C. for 4 h, 16 h and 24 h.

[8] = test system: Bifidobacterium lactis BB12 (CNCM I-3446); experiment: Treatment of coffee extracts with bacteria cells (B. lactis), HPLC
Method: as §2, §4, §5

Chlorogenate esterase = experiment: Incubation of coffee extracts with chlorogenate esterase, HPLC; assay type: biochemical, Aspergillus japonicus
Method: as §2
Chlorogenate esterase (24 U/g), derived from Aspergillus japonicus (Kikkoman, Japan). Tannase from Aspergillus oryzae (Kikkoman, Japan) Preparation of Bacteria Cells
A solution of chlorogenate esterase (25 mg) in 200 μl phosphate buffer (pH 7.0) was added to 800 μl of a coffee solution (3%). The mixture was then incubated at 37° C. for 4 h, 16 h and 24 h. After reaction time, the enzymatic activity was stopped by heat treatment (3 min, 90° C.) and the mixture was filtered before analysis.

Question: For `O=C(/C=C/c1ccc(O)c(O)c1)O[C@@H]1C[C@@](O)(C(=O)O)C[C@@H](O)[C@@H]1O` [5-CQA, 5-caffeoyl quinic acid], which “% hydrolysis of 5-CQA (% hydrolysed of total 5-CQA present in the samples)” value [1] is on record?
Answer: 48%

Question: Which “Concentration in % relative to untreated reference at t = 0” value ([2]; 6 h, cell preparation 100 uL) does the source give for feruloyl quinic acids [FQA] here?
Answer: 42%

Question: What about the “Concentration in % relative to untreated reference at t = 0” value ([2]; 6 h, cell preparation 350 uL) of the same compound?
Answer: 17%

Question: And the “Concentration in % relative to untreated reference at t = 0” value ([2]; 6 h, cell preparation 750 uL)?
Answer: 8%

Question: And the “Concentration in % relative to untreated reference at t = 0” value ([2]; 24 h, cell preparation 100 uL)?
Answer: 17%

Question: And the “Concentration in % relative to untreated reference at t = 0” value ([2]; 24 h, cell preparation 350 uL)?
Answer: 4%

Question: What about the “Concentration in % relative to untreated reference at t = 0” value ([2]; 24 h, cell preparation 750 uL) of the same compound?
Answer: 0%

Question: What about the “Concentration in % relative to untreated reference at t = 0” value ([3]; 2 h, cell preparation 100.0 uL) of the same compound?
Answer: 36%

Question: What about the “Concentration in % relative to untreated reference at t = 0” value ([3]; 2 h, cell preparation 350.0 uL) of the same compound?
Answer: 15%

Question: What about the “Concentration in % relative to untreated reference at t = 0” value ([3]; 6 h, cell preparation 100.0 uL) of the same compound?
Answer: 18%

Question: What about the “Concentration in % relative to untreated reference at t = 0” value ([3]; 6 h, cell preparation 350.0 uL) of the same compound?
Answer: 11%

Question: What about the “% relative to untreated control at t = 0” value ([4]; 2 h) of the same compound?
Answer: 82%

Question: What about the “% relative to untreated control at t = 0” value ([4]; 6 h) of the same compound?
Answer: 60%

Question: And the “% relative to untreated control at t = 0” value ([4]; 24 h)?
Answer: 34%

Question: And the “% relative to untreated control at t = 0” value ([5]; 4 h)?
Answer: 79%

Question: What about the “% relative to untreated control at t = 0” value ([5]; 6 h) of the same compound?
Answer: 71%

Question: What about the “% relative to untreated control at t = 0” value ([5]; 16 h) of the same compound?
Answer: 48%

Question: What about the “% relative to untreated control at t = 0” value ([5]; 24 h) of the same compound?
Answer: 52%

Question: What about the “% relative to untreated control at t = 0” value ([6]; cell amount 50 μL/1 mL, 2 h) of the same compound?
Answer: 90%

Question: What about the “% relative to untreated control at t = 0” value ([6]; cell amount 50 μL/1 mL, 4 h) of the same compound?
Answer: 89%

Question: What about the “% relative to untreated control at t = 0” value ([6]; cell amount 100 μL/1 mL, 2 h) of the same compound?
Answer: 82%

Question: And the “% relative to untreated control at t = 0” value ([6]; cell amount 100 μL/1 mL, 4 h)?
Answer: 74%

Question: And the “% relative to untreated control at t = 0” value ([6]; cell amount 350 μL/1 mL, 2 h)?
Answer: 61%

Question: And the “% relative to untreated control at t = 0” value ([6]; cell amount 350 μL/1 mL, 4 h)?
Answer: 53%

Question: And the “% relative to untreated control at t = 0” value ([6]; cell amount 750 μL/1 mL, 2 h)?
Answer: 41%

Question: And the “% relative to untreated control at t = 0” value ([6]; cell amount 750 μL/1 mL, 4 h)?
Answer: 37%

Question: And the “% relative to untreated control at t = 0” value ([7]; NESCAFE PROTECT + Lactobacillus johnsonii, 4 h)?
Answer: 42%

Question: And the “% relative to untreated control at t = 0” value ([7]; NESCAFE PROTECT + Lactobacillus johnsonii, 16 h)?
Answer: 21%

Question: And the “% relative to untreated control at t = 0” value ([7]; NESCAFE PROTECT + Lactobacillus johnsonii, 24 h)?
Answer: 20%

Question: And the “% relative to untreated control at t = 0” value ([7]; green coffee extract + Lactobacillus johnsonii, 4 h)?
Answer: 49%

Question: And the “% relative to untreated control at t = 0” value ([7]; green coffee extract + Lactobacillus johnsonii, 16 h)?
Answer: 15%

Question: And the “% relative to untreated control at t = 0” value ([7]; green coffee extract + Lactobacillus johnsonii, 24 h)?
Answer: 15%

Question: And the “% relative to untreated control at t = 0” value ([8]; NESCAFE PROTECT + Bifidobacterium lactis, 4 h)?
Answer: 54%

Question: What about the “% relative to untreated control at t = 0” value ([8]; NESCAFE PROTECT + Bifidobacterium lactis, 16 h) of the same compound?
Answer: 23%

Question: And the “% relative to untreated control at t = 0” value ([8]; NESCAFE PROTECT + Bifidobacterium lactis, 24 h)?
Answer: 20%

Question: And the “% relative to untreated control at t = 0” value ([8]; green coffee extract + Bifidobacterium lactis, 4 h)?
Answer: 33%

Question: And the “% relative to untreated control at t = 0” value ([8]; green coffee extract + Bifidobacterium lactis, 16 h)?
Answer: 12%

Question: What about the “% relative to untreated control at t = 0” value ([8]; green coffee extract + Bifidobacterium lactis, 24 h) of the same compound?
Answer: 6%

Question: What about the “% relative to untreated control at t = 0” value (Chlorogenate esterase; NESCAFE PROTECT + Chlorogenate esterase, 4 h) of the same compound?
Answer: 54%

Question: What about the “% relative to untreated control at t = 0” value (Chlorogenate esterase; NESCAFE PROTECT + Chlorogenate esterase, 16 h) of the same compound?
Answer: 15%

Question: What about the “% relative to untreated control at t = 0” value (Chlorogenate esterase; NESCAFE PROTECT + Chlorogenate esterase, 24 h) of the same compound?
Answer: 14%

Question: And the “% relative to untreated control at t = 0” value (Chlorogenate esterase; green coffee extract + Chlorogenate esterase, 4 h)?
Answer: 73%

Question: What about the “% relative to untreated control at t = 0” value (Chlorogenate esterase; green coffee extract + Chlorogenate esterase, 16 h) of the same compound?
Answer: 24%

Question: And the “% relative to untreated control at t = 0” value (Chlorogenate esterase; green coffee extract + Chlorogenate esterase, 24 h)?
Answer: 23%
